From US12029712B2 (Sun Pharmaceutical Industries, Inc., priority 2017, dated 2024)

Tests used:
[1] = Pharmacokinetic profile of Compound 100 versus non-deuterated D-serine, 150 mg/kg PO; type: in vivo, male Sprague-Dawley rats
Text: (§1) The pharmacokinetic profile of Compound 100 was investigated in male Sprague-Dawley rats compared with that of non-deuterated D-serine. […] Plasma was collected and analyzed for Compound 100 and non-deuterated D-Serine. Additional blood was collected and analyzed for the full clinical chemistry profile.

[2] = Brain distribution of Compound 100 24 hours after a single 100 mg/kg PO dose; type: in vivo, male Sprague-Dawley rats
Protocol: The distribution profile of Compound 100 was investigated in male Sprague-Dawley rats. […] At 24 hours after dosing, tissues from perfused brain and plasma were collected and analyzed by LC-MS.

[3] = system: rats; assay: Nephrotoxicity comparison at doses from 150 mg/kg to 750 mg/kg (dose escalation); type: in vivo; conditions: for BUN / creatinine: doses from 150 mg/kg to 750 mg/kg, PO
[4] = target: T1, human NMDAR subunits GluN1 and GluN2A (Homo sapiens, UniProt Q05586); assay: NMDA receptor activation in automated patch clamp system (ScreenPatch); type: cell-based; conditions: HEK293 cells, 0.003 to 10 μM
T1 construct: expressed in transfected cells; host or cells: HEK293
Protocol: Peak current and steady state current were measured. The activity at the NMDA receptor was indistinguishable for the two compounds.

[5] = Pharmacokinetics of deuterated and non-deuterated D-serine, PO 10 mg/kg; type: in vivo, male Sprague Dawley rats
Protocol: Three rats were used for each group. Blood was collected at the following time points: for IV dosing: pre-dose, 0.05, 0.167, 0.5, 1, 2, 4, 6, 8 and 12 hours post-dose; for PO dosing: pre-dose, 0.25, 0.5, 1, 2, 4, 6, 8 and 12 hours post-dose PO. Urine was collected at pre-dose (minimum 12 hours), 0-6, 6-12 and 12-24 hours. Plasma samples were analyzed and quantified for dosed compound LC-MS/MS.

[6] = system: Male Sprague-Dawley Rats; assay: Nephrotoxicity dose response of non-deuterated D-serine, 30 to 300 mg/kg PO; type: in vivo; conditions: 24 hr samples, 150 and 300 mg/kg doses, versus control and reference values
Text: The pharmacokinetic profile of non-deuterated D-serine was investigated in male Sprague-Dawley rats. […] Plasma was collected and analyzed for the non-deuterated D-serine. Additional blood was collected and analyzed for the full clinical chemistry profile.

[7] = system: Male Sprague-Dawley Rats; assay: Nephrotoxicity of Compound 100 and non-deuterated D-serine, 150 mg/kg PO (BUN, creatinine, GGT); type: in vivo
Text: as §1

[8] = dose escalation 150 mg/kg to 750 mg/kg

SMILES	Cmax and AUCinf compared with non-deuterated D-serine [1]	course of concentration in hippocampus ([1]; at 24 hr)	course of concentrations in plasma and cortex ([1]; within 24 hr)	concentration in the cortex compared with plasma or other brain locations [2]	exposure as measured by AUC and Cmax, compared with non-deuterated D-serine [3, 8]	gross signs of nephrotoxicity [3, 8]	BUN [3]	creatinine [3]	activity at the NMDA receptor (peak current and steady state current) [4]	Tmax compared with non-deuterated D-serine [5]	creatine level [6]	gamma glutamyl transferase (GGT) level [6]	urea nitrogen level [6]	blood urea nitrogen (BUN) level ([7]; 8 hr and 24 hr serum samples)	creatinine level ([7]; 24 hr serum samples)	gamma glutamyl transferase (GGT) level ([7]; 24 hr serum samples)
[2H][C@@](N)(CO)C(=O)O [Compound 100, (2R)-2-amino-2-deutero-3-hydroxy-propanoic acid]	similar	remained steady	decreased	greater	greater	not Compound 100	minimal changes	minimal changes	indistinguishable	similar						
N[C@H](CO)C(=O)O [Non-deuterated D-Serine, D-serine]						only observed in rats receiving non-deuterated D-serine	increasingly elevated levels	increasingly elevated levels	indistinguishable		Elevated	Elevated	Elevated	Elevated	Elevated	Elevated
